Data published in PMC7451656, “In vitro and in vivo growth inhibitory activities of cryptolepine hydrate against several Babesia species and Theileria equi” (PLoS Neglected Tropical Diseases, 2020).

What was measured:
B. bigemina = test: Growth inhibitory fluorescence assay in vitro, B. bigemina; type: cell-based, Babesia bigemina
Method: (§1) Texas strain of B. bovis and Argentina strain of B. bigemina were grown using bovine red blood cells (RBCs, collected from cattle farm of Obihiro University of Agriculture and Veterinary Medicine and stored at 4°C) in medium 199 (M199; Sigma-Aldrich, Tokyo, Japan) supplemented with 40% bovine serum, while RPMI 1640 medium (Sigma-Aldrich, Tokyo, Japan) was used for B. divergens (German strain) cultivation. The United States Department of Agriculture (USDA) strain of T. equi was grown in equine RBCs (collected from horse farm of Obihiro University of Agriculture and Veterinary Medicine and stored at 4°C) in M199 supplemented with 40% equine serum, and hypoxanthine (MP Biomedicals, Santa Ana, CA, USA) at a final concentration of 13.6 μg/ml was used as a vital supplement, while GIT medium was used for B. caballi (USDA strain) cultivation. Sixty μg/ml of streptomycin, 0.15 μg/ml of amphotericin B, and 60 U/ml of penicillin G (Sigma-Aldrich, Tokyo, Japan) were added to all media to prevent fungal and bacterial contamination. All parasite cultures were maintained for a long time in a microaerophilic stationary-phase culture system.
(§2) The inhibition assay was conducted according to the previously described protocol. Briefly, different concentrations of CRY, DA, CF, and AQ were added in triplicate in 96-well plates with 1% parasitemia and 2.5% HCT for B. bovis and B. bigemina and 5% HCT for B. divergens, B. caballi, and T. equi. The plates were incubated in a humidified incubator with 5% CO2, 5% O2, and 90% N2 for 96 h without changing the media. After 96 h, 100 μl of lysis buffer containing 2 × SG1 was directly added to each well and the plates were then wrapped in aluminum foil for protection from direct light and incubated for 6 h at room temperature. Afterward, the fluorescence was measured using a fluorescence spectrophotometer (Fluoroskan Ascent, Thermo Fisher Scientific, USA) at 485 nm excitation and 518 nm emission wavelengths. The relative fluorescence value was set to percentages after subtracting the mean values of the negative control. The experiment was repeated thrice.
(§3) The IC50 values of CRY, DA, CF, and AQ were determined using the nonlinear regression curve fit in GraphPad Prism (GraphPad Software Inc., San Diego, CA, USA). Combination index (CI) values for the drug combination were calculated using CompuSyn software, and the degree of synergism was determined as the weighted average of CI values using a formula [(1 x IC50) + (2 x IC75) + (3 x IC90) + (4 x IC95)]/10 [30]. The differences in parasitemia and hematology profiles in the B. microti–infected mice were analyzed using an independent Student’s t-test and one-way ANOVA test using GraphPad Prism version 5.0 for Windows (GraphPad Software Inc., San Diego, CA, USA). A P-value < 0.05 was considered statistically significant.

B. caballi = test: Growth inhibitory fluorescence assay in vitro, B. caballi; type: cell-based, Babesia caballi
Method: as §1, §2, §3

B. bovis = test: Growth inhibitory fluorescence assay in vitro, B. bovis; type: cell-based, Babesia bovis
Method: as §1, §2, §3

T. equi = test: Growth inhibitory fluorescence assay in vitro, T. equi; type: cell-based, Theileria equi
Method: as §1, §2, §3

[1] = tested on: Madin–Darby bovine kidney (MDBK) cell line; test: cells; type: cell-based; conditions: for EC50: MDBK, 24 h, cell viability, CCK-8
Method: (§4) Madin–Darby bovine kidney (MDBK) (ECACC), mouse embryonic fibroblast (NIH/3T3 ATCC CRL-1658) and Human foreskin fibroblast (HFF HFF-1 ATCC SCRC-1041) cell lines were recovered from -80°C stock and cultured continuously in our laboratory at 37°C in a humidified incubator with 5% CO2. In 75 cm^2 culture flasks, NIH/3T3 and HFF cell lines were maintained with Dulbecco’s Modified Eagle’s Medium (DMEM; Gibco, Grand Island, NY, USA), while the MDBK cell line was maintained with Minimum Essential Medium Eagle (MEM; Gibco). Ten percent fetal bovine serum, 1% glutamine, and 0.5% penicillin/streptomycin (Gibco) were added to all media and the cells were stained with 4, 6-diamidino-2-phenylindole dihydrochloride (DAPI; Sigma-Aldrich, St. Louis, MO, USA) to ensure that they were free from mycoplasma contamination. Afterward, the cells were washing twice with Dulbecco’s phosphate-buffered saline and TrypLE Express (Gibco) was used for cell detachment from the culture flask. Finally, Neubauer improved C-Chip (NanoEntek Inc., Seoul, Korea) was used for counting the viable cells after staining with 0.4% trypan blue solution.
(§5) The cytotoxicity assay was performed in accordance with the previously described protocol. Briefly, the assay was carried out using 96-well plates at 37 °C in a humidified incubator with 5% CO2, 100 μl of cells at a density of 5 x 10^4 cells/ml was seeded per well and allowed to attach to the plate for 24 h. Ten microliters of twofold drug dilutions was added to each well to a final concentration of 0.781 to 100 μM in triplicate and incubated for another 24 h. Ten μl of Cell Counting Kits-8 (CCK-8; Dojindo, Japan) was added to each well and incubated for another 3 h, and the absorbance was measured at 450 nm using a microplate reader.

[2] = tested on: human foreskin fibroblast (HFF) cell line; test: cells; type: cell-based; conditions: for EC50: cell viability, HFF, 24 h, CCK-8
Method: as §4, §5

[3] = tested on: mouse embryonic fibroblast (NIH/3T3) cell line; test: cells; type: cell-based; conditions: for EC50: cell viability, NIH/3T3, 24 h, CCK-8
Method: as §4, §5

B. divergens = test: Growth inhibitory fluorescence assay in vitro, B. divergens; type: cell-based, Babesia divergens
Method: as §1, §2, §3

B. microti = test: Chemotherapeutic effect against B. microti in mice (parasitemia); type: in vivo, Babesia microti; conditions: BALB/c mice, 25 mg/kg DA i.p.
Method: Rodent B. microti (Munich strain) was recovered from -80°C stock and injected intraperitoneally (i.p.) in two 8-week-old female BALB/c mice purchased from CLEA Japan (Clea Japan, Tokyo, Japan). The mice were euthanized using an anesthesia system containing isoflurane after parasitemia reached approximately 30% and the blood was collected by cardiac puncture to conduct the in vivo studies.
(§6) The promising effect of CRY in vitro encouraged us to evaluate its in vivo effects against B. microti in mice. The assay was conducted in accordance with the previously described protocol. In two separate trials, 35 female 8-week-old BALB/c mice, housed under a pathogen-free environment with controlled humidity, temperature (22°C) and a 12 h light/ dark cycle were caged in seven groups, each group consisting of five mice. Six groups were i.p. injected with 0.5 ml of inoculum (1×10^7 B. microti iRBCs), while the seventh group was left uninfected and untreated to act as a negative control. When the average parasitemia in all infected mice reached approximately 1%, the 5-day drug treatment was initiated. The first and second groups were i.p. injected with 25 mg/kg body weight (BW) of DA and 5 mg/kg BW of CRY, respectively. The third group received 20 mg/kg BW of AQ orally, while the fourth and fifth groups were administered a combination of 2.5 mg/kg BW CRY + 12.5 mg/kg BW DA and 2.5 mg/kg BW CRY + 10 mg/kg AQ via a route similar to that of the single-drug treatment, respectively. The sixth group received 5% DMSO in physiological saline i.p. as a positive control. Parasitemia and hematology profiles (RBCs, hemoglobin (HGB), and HCT) were monitored every 2 and 4 days by microscopic examination and hematology analyzer (Celltac α MEK-6450, Nihon Kohden Corporation, Tokyo, Japan), respectively. On day 49, all mice were euthanized using an anesthesia system containing isoflurane and the blood was collected by cardiac puncture for PCR detection of the parasites.

[4] = tested on: B. microti small-subunit rRNA (ss-rRNA) gene; test: Nested PCR detection of B. microti DNA in blood of treated mice; type: in vivo, Babesia microti; conditions: day 49, 25 mg/kg DA
Method: as §6
The nested PCR (nPCR) that targeted the B. microti small-subunit rRNA (ss-rRNA) gene was performed in accordance with the previously described protocol and the genomic DNA was extracted from blood samples collected from all mice groups on day 49 post-infection (p.i.) using a QIAamp DNA Blood Mini Kit (Qiagen, Tokyo, Japan). PCR cycling conditions were performed as previously described and the bands with an expected size of 154 bp were considered positive.

CC(C)/N=c1\cc2n(-c3ccc(Cl)cc3)c3ccccc3nc-2cc1Nc1ccc(Cl)cc1 [CF, clofazimine]
Selective index HFF (B. bigemina; EC50 HFF / IC50 B. bigemina): ˃ 17.5
Selective index MDBK (B. bigemina; EC50 MDBK / IC50 B. bigemina): 6.1
Selective index NIH/3T3 (B. bigemina; EC50 NIH/3T3 / IC50 B. bigemina): ˃ 17.5
Selective index HFF (B. caballi; EC50 HFF / IC50 B. caballi): ˃ 12.6
Selective index MDBK (B. caballi; EC50 MDBK / IC50 B. caballi): 4.4
Selective index NIH/3T3 (B. caballi; EC50 NIH/3T3 / IC50 B. caballi): ˃ 12.6
Selective index HFF (B. bovis; EC50 HFF / IC50 B. bovis): ˃ 12.1
Selective index MDBK (B. bovis; EC50 MDBK / IC50 B. bovis): 4.2
Selective index NIH/3T3 (B. bovis; EC50 NIH/3T3 / IC50 B. bovis): ˃ 12.1
Selective index HFF (T. equi; EC50 HFF / IC50 T. equi): ˃ 34.7
Selective index MDBK (T. equi; EC50 MDBK / IC50 T. equi): 12.1
Selective index NIH/3T3 (T. equi; EC50 NIH/3T3 / IC50 T. equi): ˃ 34.7
EC50 ([1]; Bos taurus): 34000 ± 3400 nM
EC50 [1]: 34700 ± 3400 nM
EC50 ([2]; Homo sapiens): > 100000 nM
EC50 ([3]; Mus musculus, NIH3T3): > 100000 nM
Selective index HFF (B. divergens; EC50 HFF / IC50 B. divergens): ˃ 7.2
Selective index MDBK (B. divergens; EC50 MDBK / IC50 B. divergens): 2.5
Selective index NIH/3T3 (B. divergens; EC50 NIH/3T3 / IC50 B. divergens): ˃ 7.2

CC(=O)NCC(=O)O.CC(=O)NCC(=O)O.N=C(N)c1ccc(N=NNc2ccc(C(=N)N)cc2)cc1 [DA, diminazene aceturate]
day p.i. on which parasitemia was undetectable by microscopy (B. microti): 16 days
peak parasitemia level (B. microti; 5 days, day 10): 8.5%
IC50 (B. bigemina; B. bigemina in vitro culture, fluorescence assay, 96 h): 680 ± 0.09 nM
IC50 (B. caballi; B. caballi in vitro culture, fluorescence assay, 96 h): 22 ± 0.0002 nM
IC50 (B. bovis; B. bovis in vitro culture, fluorescence assay, 96 h): 350 ± 0.06 nM
IC50 (T. equi; T. equi in vitro culture, fluorescence assay, 96 h): 710 ± 0.05 nM
inhibition of cell line at 100 μM [1]: did not show any inhibition
EC50 [1]: > 100000 nM
inhibition of cell line at 100 μM [2]: did not show any inhibition
EC50 [2]: > 100000 nM
inhibition of cell line at 100 μM [3]: did not show any inhibition
EC50 [3]: > 100000 nM
IC50 (B. divergens; B. divergens in vitro culture, fluorescence assay, 96 h, read-out: IC50): 430 ± 0.05 nM
parasite DNA in blood (nPCR) [4]: not detected
